Measurements as given in patent US8470765B2, “Polypeptides and antibacterial or antiseptic use of same” (AnGes MG, Inc., priority 2009, dated 2013).
Where two headings read alike, the source gives them in different places. No end group written: not given here.

How the values were obtained:
[1] = tested on: Pseudomonas aeruginosa (P. aeruginosa ATCC27853); experiment: ATP assay (BacTiter-Glo) viability, Table 2; assay type: cell-based; details: ATCC27853, 3 h, read-out: Viability (%) P. aeruginosa
Experimental: (§1) The antibacterial activity of the polypeptides was measured using the ATP assay method.
(§2) Using BacTiter-Glo Microbial Cell Viability Assay kit available from PROMEGA, the antibacterial activity of the peptides was evaluated from the viability of bacteria. That is, ATP amount in viable bacteria in cases where the concentration of the peptides was 10 μg/ml, was measured using a microtiter plate or test tubes.
(§3) With respect to the strains, Staphylococcus aureus (S. aureus ATCC29213) as Gram-positive bacteria, or, alternatively, Pseudomonas aeruginosa (P. aeruginosa ATCC27853) as Gram-negative bacteria, was used. The bacteria were cultured in media for 3 to 4 hours, and thereafter absorbances at A600 were measured. Bacterial suspensions were diluted with Mueller-Hinton broth (MHB) according to McFarland #0.5. Each strain was added so as to attain about 0.5-1×10^5 CFU/mL (final concentration) in terms of Escherichia coli. Each peptide was prepared and added to a microplate or test tubes so as to attain a final concentration of […], and the bacterial suspension was added thereto. […] The plate was incubated at 37° C. for 3 hours, and the amount of ATP in the culture media was measured. Relative values were calculated by comparison with the negative control, and these values were regarded as the viability.

[2] = tested on: Staphylococcus aureus (S. aureus ATCC29213); experiment: ATP assay (BacTiter-Glo) viability, Table 2; assay type: cell-based; details: ATCC29213, 3 h, read-out: Viability (%) S. aureus
Experimental: as §1, §2, §3

[3] = tested on: Enterobacter cloacae JCM 1232; assay type: cell-based
Experimental: Bacteria (Escherichia coli ATCC 25922, Pseudomonas aeruginosa ATCC 27853, Staphylococcus aureus ATCC29213, Klebsiella pneumoniae JCM 1662, Enterobacter cloacae JCM 1232, Enterobacter aerogenes JCM 1235 and Staphylococcus epidermidis JCM 2414) were inoculated to Mueller-Hinton broth: MHB or LB medium, and cultured at a temperature and period suited for each strain. From the thus obtained colonies, each strain was inoculated to a fresh liquid medium and cultured for 16 to 20 hours. Then an aliquot having a volume (10 to 50 appropriate to each strain was inoculated to a fresh liquid medium and cultured for 4 to 6 hours, followed by the measurement of the absorbance at 600 nm. After comparing the turbidity with McFarland #0.5, the resultant was diluted with a medium. Each strain was added to about 10^5 CFU/mL (final concentration). Each of the peptide solutions to be tested was diluted with MHB to obtain a solution of 128 μg/mL. […] As controls, tobramycin (TOB: aminoglucoside antibiotic), oxacillin (OX:β-lactam antibiotic), meropenem (MEPM: carbapenem antibiotic) and ciprofloxacin (new quinolone antibiotic) were used. […] To a 96-well microtiter plate, 0.1 mL of the inoculation solution and 0.1 mL of the peptide- or positive control-containing medium having the respective concentration were added, and cultured at 37° C. for 16 to 24 hours (or a time period suited for the growth of the respective strain). The well not containing the sample was used as a negative control. After the culturing, the growth was visually observed, and the minimum concentration at which the growth was inhibited was defined as the minimum growth inhibition concentration (MIC). The medium used in this test for bacteria was Mueller-Hinton broth. Independent experiments were carried out twice or more for each strain.

[4] = tested on: Micrococcus luteus NBRC13867
[5] = tested on: Bacillus subtilis NBRC3134
[6] = tested on: Actinobacillus actinomycetemcomitans JCM2434
[7] = tested on: Alternaria alternata JCM5800; details: JCM5800
[8] = tested on: Trichophyton rubrum NBRC9185
[9] = tested on: Cryptococcus neoformans IFM 46660
[10] = tested on: Rhizopus oryzae NBRC 31005
[11] = Table 4, two tests, first/second value where not identical

Row | Molecule | viability at 1 µg/mL [1] [%] | viability at 1 µg/mL [2] [%] | MIC Enterobacter cloacae [3, 11] | MIC Micrococcus luteus [4] [µg/mL] | MIC Bacillus subtilis ([5]; NBRC3134) [µg/mL] | MIC Actinobacillus actinomycetemcomitans [6] [µg/mL] | MIC Alternaria alternata [7] [µg/mL] | MIC Trichophyton rubrum ([8]; NBRC9185) [µg/mL] | MIC Cryptococcus neoformans ([9]; IFM 46660) [µg/mL] | MIC Rhizopus oryzae ([10]; NBRC 31005) [µg/mL] | MIC Trichophyton rubrum [8, 11] | MIC Rhizopus oryzae [10, 11] | MIC Enterobacter cloacae ([3]; JCM 1232) [µg/mL] | MIC Bacillus subtilis [5, 11] | MIC Cryptococcus neoformans [9, 11]
1 | NC[C@H]1O[C@H](O[C@H]2[C@H](O)[C@@H](O[C@H]3O[C@H](CO)[C@@H](O)[C@H](N)[C@H]3O)[C@H](N)C[C@@H]2N)[C@H](N)C[C@@H]1O [tobramycin, reference compound] | 1.8 | 3.6 |  |  |  |  |  |  |  |  |  |  |  |  | 
2 | GRLKRMGERLKRKIQKWIRW-NH2 [SRP-15] |  |  | 16/32 | 4 | 4 | 32 | 64 | 64 | 2 | 16 |  |  |  |  | 
3 | GRLKRMGKRLKRKIQKWARW-NH2 [SRP-14] |  |  | 32/128 | 4 | 4 | 64 | 32 | 32 | 1 | 8 |  |  |  |  | 
4 | IFLHRLKRMRKRLKRKLRLW-OH [SRP-7] |  |  | 16/128 | 2 | 4 | 128 | 32 |  | 2 |  | 64/32 | 8/16 |  |  | 
5 | KLIFLHRLKRELRKRLKRKLR-NH2 [SRP-13] |  |  | 32/64 | 2 | 4 | 128 | 64 |  | 2 | 8 | 128/64 |  |  |  | 
6 | KLIFLRELRRLRKRLKRKLR-NH2 [SRP-16] |  |  |  | 2 |  | 128 | 64 |  | 2 |  | 64/32 | 8/16 | 64 | 8/4 | 
7 | KNLRRIIRKIIHIIKKYG-NH2 [Ovispirin-1, reference compound] |  |  | 32/64 | 2 | 2 | 128 | 64 | 64 |  | > 128 |  |  |  |  | 2/4
8 | LIFLHRLKRMRKRLKRKLRL-NH2 [SRP-12] |  |  | 128< mg/mL |  |  |  |  |  | 1 | 8 |  |  |  |  | 
9 | RLKRMRKRLKRKLRLW-NH2 [SRP-17] |  |  | 128< mg/mL | 1 | 8 | > 128 | 32 |  | 2 | 8 | 64/32 |  |  |  | 
10 | RLKRMRKRLKRKLRLWHRKRYK-NH2 [SRP-8] |  |  | 128< mg/mL | 2 | 8 | > 128 | 32 | 128 |  | 8 |  |  |  |  | 1/2
